Experimental data reported in patent US20050009124A1, “Assays for detection of phosphoinositide kinase and phosphatase activity” (Echelon Biosciences Incorporated, priority 2001, published 2005).

Legend:
GST-GRP1-PH = biological target: T1, GST-GRP1-PH (Homo sapiens, UniProt O43739); test: Competitive FP assay, displacement of fluorescent tracer from GST-GRP1-PH; format: binding; details: amounts over 100-fold greater than PI(3,4,5)P3
T1 construct: The PH domain of GRP1 (general receptor for phosphoinositides) was used as a detector for PI(3,4,5)P3
T1 sequence (O43739 264-381 limits assumed): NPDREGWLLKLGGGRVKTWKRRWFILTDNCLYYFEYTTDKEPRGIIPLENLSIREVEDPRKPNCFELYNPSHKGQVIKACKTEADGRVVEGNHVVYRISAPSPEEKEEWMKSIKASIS
Protocol: In order to use these reagents in a competitive FP assay, unlabeled phosphoinositide products of an enzymatic reaction must be able to successfully compete with the labeled tracer for interaction with the binding proteins. In addition, the level of cross-reactivity of binding proteins with the phosphoinositides used as enzyme substrates should be minimal. To examine the suitability of these phosphoinositide binding proteins for this application, competition assays were performed using optimal amounts of lipid binding proteins and fluorescent tracers, mixed with increasing amounts of diC8-phosphoinositide competitors.
The sensitivity of this approach for detecting conversion of PI(4,5)P2 to PI(3,4,5)P3 was evaluated using GST-GRP1-PH protein and FAM and BODIPY®-TMR labeled tracers. Competition assays in which both diC8-PI(3,4,5)P3 and diC8-PI(4,5)P2 were added at increasing concentrations were performed.

recombinant PI 3-Kinaseα = recombinant PI 3-Kinaseα (Homo sapiens, UniProt P42336); test: Competitive FP assay for PI 3-Kinase activity; format: biochemical; details: substrate conversion at constant enzyme levels
Chain of recombinant PI 3-Kinaseα (P42336 whole entry): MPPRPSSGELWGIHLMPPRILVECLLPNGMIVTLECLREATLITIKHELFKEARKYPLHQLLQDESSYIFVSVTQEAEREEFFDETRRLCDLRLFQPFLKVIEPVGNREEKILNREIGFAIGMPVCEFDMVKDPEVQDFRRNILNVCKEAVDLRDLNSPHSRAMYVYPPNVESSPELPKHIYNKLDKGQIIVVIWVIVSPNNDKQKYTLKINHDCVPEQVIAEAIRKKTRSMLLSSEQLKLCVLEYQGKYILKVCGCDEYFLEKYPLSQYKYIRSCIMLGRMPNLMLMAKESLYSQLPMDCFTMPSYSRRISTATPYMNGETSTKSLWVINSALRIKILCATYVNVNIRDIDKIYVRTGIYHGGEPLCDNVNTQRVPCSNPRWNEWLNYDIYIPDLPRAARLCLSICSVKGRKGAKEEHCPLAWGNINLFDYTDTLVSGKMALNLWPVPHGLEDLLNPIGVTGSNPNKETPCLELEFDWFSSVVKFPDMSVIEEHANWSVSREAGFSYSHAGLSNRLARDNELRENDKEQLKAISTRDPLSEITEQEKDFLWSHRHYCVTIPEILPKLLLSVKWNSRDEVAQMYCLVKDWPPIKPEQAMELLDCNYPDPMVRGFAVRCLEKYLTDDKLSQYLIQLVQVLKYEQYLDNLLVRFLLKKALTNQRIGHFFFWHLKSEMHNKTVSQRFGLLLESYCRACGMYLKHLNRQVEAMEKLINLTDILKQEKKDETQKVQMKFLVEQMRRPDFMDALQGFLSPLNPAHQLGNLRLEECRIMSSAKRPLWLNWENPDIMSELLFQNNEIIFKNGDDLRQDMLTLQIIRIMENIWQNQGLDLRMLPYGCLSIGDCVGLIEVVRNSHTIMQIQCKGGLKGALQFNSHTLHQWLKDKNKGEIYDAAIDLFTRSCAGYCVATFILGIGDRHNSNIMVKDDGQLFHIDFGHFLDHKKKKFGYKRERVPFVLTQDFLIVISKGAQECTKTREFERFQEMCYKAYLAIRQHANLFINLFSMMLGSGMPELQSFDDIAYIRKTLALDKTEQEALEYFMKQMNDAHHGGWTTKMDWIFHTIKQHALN
Chain of recombinant PI 3-Kinaseα (P27986 whole entry partner): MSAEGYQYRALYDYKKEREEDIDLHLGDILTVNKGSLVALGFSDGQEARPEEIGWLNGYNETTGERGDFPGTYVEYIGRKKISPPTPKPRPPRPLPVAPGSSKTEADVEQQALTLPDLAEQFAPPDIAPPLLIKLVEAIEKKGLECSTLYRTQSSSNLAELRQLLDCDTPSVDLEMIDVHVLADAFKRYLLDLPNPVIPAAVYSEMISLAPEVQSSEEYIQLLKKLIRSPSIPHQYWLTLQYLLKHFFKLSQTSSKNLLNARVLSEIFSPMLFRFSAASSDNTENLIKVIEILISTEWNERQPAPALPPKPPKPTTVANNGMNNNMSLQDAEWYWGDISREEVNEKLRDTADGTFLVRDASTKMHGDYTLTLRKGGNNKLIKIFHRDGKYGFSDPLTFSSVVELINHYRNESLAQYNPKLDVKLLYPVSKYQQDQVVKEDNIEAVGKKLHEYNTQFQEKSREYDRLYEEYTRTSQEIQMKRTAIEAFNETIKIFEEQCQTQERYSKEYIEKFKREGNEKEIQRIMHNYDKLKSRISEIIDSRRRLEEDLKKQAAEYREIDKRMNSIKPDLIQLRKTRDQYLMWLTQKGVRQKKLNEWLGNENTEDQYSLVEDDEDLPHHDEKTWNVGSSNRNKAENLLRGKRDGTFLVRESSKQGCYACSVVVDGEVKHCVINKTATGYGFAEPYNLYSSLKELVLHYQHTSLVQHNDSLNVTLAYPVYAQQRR
Excerpt: The FP assays developed for the detection of PI 3-Kinase and SHIP2 activity were designed as competitive assays in which the enzyme product would compete with a fluorescently labeled synthetic phosphoinositide or inositol phosphate tracer for binding to a specific phosphoinositide binding protein. As the products of the enzymatic reaction increase, the soluble phosphoinositide products compete for the interaction of the binding protein and the fluorescent tracer, leading to a decrease in mP values as the amount of depolarized free tracer increases. Thus, changes in polarization should be inversely proportional to the degree of enzyme activity.
These assays involve four steps. First, the enzyme and substrate phosphoinositide are combined in an appropriate reaction buffer and the reaction is allowed to proceed. […] Finally, polarization values are measured to determine the extent of enzyme activity in the reaction.
The ability of FP competitive assays to detect the production of phosphoinositide products of PI 3-Kinaseα activity was tested using recombinant PI 3-Kinaseα. […] The production of PI(3,4,5)P3 was detected as a decrease in mP values as enzyme products compete with I(1,3,4,5)P4-BODIPY®-TMR for interaction with the binding protein.

effect on interaction of binding protein with fluorescent tracers (GST-GRP1-PH): minimal effect | Km (recombinant PI 3-Kinaseα): ~3 µM
SMILES: CCCCCCCC(=O)OC[C@H](COP(=O)(O)O[C@@H]1[C@H](O)[C@H](O)[C@@H](OP(=O)(O)O)[C@H](OP(=O)(O)O)[C@H]1O)OC(=O)CCCCCCC [diC8-PI(4,5)P2]
